GI50 and TGI data for eight molecules are collected here from PubChem BioAssay (NCI).

SMILES strings stand for the structures.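 96-well plates; 48 h exposure; 5 concentrations. Endpoints by linear interpolation between flanking doses. Not reached: highest tested concentration assigned. At the GI50, growth is halved. TGI marks complete inhibition of growth.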 Some results are limits rather than exact numbers.

Some test systems named below: COLO 205 colon; NCI-H23 lung; M14 melanoma; RXF 393 renal; RPMI-8226 leukemia; SK-MEL-5 melanoma; HCT-15 colon; OVCAR-4 ovarian; ACHN renal; SNB-19 CNS.
Holding throughout (experiment): NCI tumour cell line growth inhibition, 48 h

Turning to `CC(C)[C@@H](C(=O)O[C@@H]1/C=C/C(=O)O[C@@H](C)CCC/C=C/[C@@H]2C[C@H](O)C[C@H]21)N(C)C`, the GI50 in the experiment on COLO 205 colon is 8.95 µM; in the experiment with NCI-H23 lung it was 23.3 µM; in the experiment on M14 melanoma it was 15.2 µM; in the experiment with RXF 393 renal, 7.33 µM; in the experiment on RPMI-8226 leukemia, 3.93 µM; in the experiment with SK-MEL-5 melanoma it was 2.25 µM. Also, the GI50 in the experiment with HCT-15 colon is 16 µM; with OVCAR-4 ovarian, 9.09 µM; in the experiment with ACHN renal, 38.4 µM; with SNB-19 CNS it was 37 µM. For the same molecule, the TGI with COLO 205 colon turned out to be 25.5 µM; in the experiment on NCI-H23 lung it was 91.8 µM; with M14 melanoma it was 63.2 µM; in the experiment with RXF 393 renal it was 44.1 µM; with RPMI-8226 leukemia it was 27.1 µM; in the experiment on SK-MEL-5 melanoma, 5.37 µM. In addition, the TGI in the experiment on HCT-15 colon is 32.3 µM; in the experiment with OVCAR-4 ovarian, greater than 61.9 µM; in the experiment on ACHN renal, greater than 100 µM; in the experiment with SNB-19 CNS it was greater than 100 µM.

With `NS(=O)(=O)c1ccc(-n2nc3c(c2-c2cccs2)Cc2ccccc2-3)cc1`, the GI50 is 25.3 µM with COLO 205 colon; 11.9 µM in the experiment with NCI-H23 lung; 17.3 µM with M14 melanoma; 17.4 µM in the experiment on RXF 393 renal; 6.68 µM in the experiment with RPMI-8226 leukemia; 10.5 µM in the experiment with SK-MEL-5 melanoma. In addition, the GI50 with HCT-15 colon was 12 µM; in the experiment with OVCAR-4 ovarian it was 29.9 µM; in the experiment on ACHN renal, 11.7 µM; in the experiment on SNB-19 CNS, 18.1 µM. Besides, the TGI is 69.3 µM in the experiment on COLO 205 colon; 24.8 µM with NCI-H23 lung; 34.1 µM in the experiment on M14 melanoma; 40.7 µM with RXF 393 renal; 26.6 µM in the experiment on RPMI-8226 leukemia; 22.5 µM with SK-MEL-5 melanoma. For the same molecule, the TGI with HCT-15 colon is 27.8 µM; in the experiment on OVCAR-4 ovarian, greater than 100 µM; in the experiment with ACHN renal, 24.7 µM; in the experiment on SNB-19 CNS it was 44.8 µM.

Consider `Oc1c(C(Nc2ccccn2)c2ccccc2)ccc2cccnc12` (stereo not given), for which the TGI with COLO 205 colon was 65.9 µM; in the experiment on NCI-H23 lung it was greater than 77 µM; in the experiment on M14 melanoma it was greater than 52.6 µM; in the experiment with RXF 393 renal it was 40.1 µM; with RPMI-8226 leukemia, 29.3 µM; with SK-MEL-5 melanoma, 15.5 µM. Also, the TGI is greater than 100 µM in the experiment on HCT-15 colon, 31.9 µM in the experiment on OVCAR-4 ovarian, 29.1 µM with ACHN renal and greater than 100 µM with SNB-19 CNS.

Regarding `CSc1ccc(N2C(=O)C3c4[nH]c5ccccc5c4C4CCC(C(C)(C)C)CC4C3C2=O)cc1` (stereo not given), the TGI is 25.2 µM in the experiment with COLO 205 colon; 31.9 µM in the experiment with NCI-H23 lung; greater than 100 µM in the experiment on M14 melanoma; 47.1 µM in the experiment on RXF 393 renal; greater than 100 µM in the experiment on RPMI-8226 leukemia; 58.5 µM with SK-MEL-5 melanoma. Also, the TGI was greater than 100 µM in the experiment with HCT-15 colon, 24.9 µM in the experiment on OVCAR-4 ovarian, 29.1 µM in the experiment on ACHN renal and 45.2 µM with SNB-19 CNS.

As to `Cc1cc(N(CCC#N)S(=O)(=O)c2ccccc2)ccc1C=Nc1ccc(C(=O)O)cc1`, the TGI was 10.1 µM in the experiment on COLO 205 colon; 33.9 µM in the experiment on NCI-H23 lung; 21.8 µM in the experiment on M14 melanoma; 6.72 µM with RXF 393 renal; greater than 21.2 µM in the experiment on RPMI-8226 leukemia; 24.3 µM with SK-MEL-5 melanoma. In addition, the TGI is 13.7 µM with HCT-15 colon, 18.6 µM with OVCAR-4 ovarian, greater than 33.2 µM with ACHN renal and 44.8 µM in the experiment on SNB-19 CNS.

`CC(=O)OC1CC2(C)C(=CC1C1SCCS1)CCC1C2CCC2(C)C(OC(C)=O)CCC12` (stereo not given): the TGI with COLO 205 colon was greater than 100 µM; in the experiment on NCI-H23 lung it was greater than 100 µM; in the experiment on M14 melanoma, greater than 100 µM; in the experiment with RXF 393 renal, 67.3 µM; in the experiment on RPMI-8226 leukemia, greater than 100 µM; in the experiment on SK-MEL-5 melanoma, greater than 100 µM. The TGI in the experiment with HCT-15 colon, in the experiment on OVCAR-4 ovarian, in the experiment with ACHN renal and with SNB-19 CNS was greater than 100 µM throughout.

As for `c1ccc2c(N=NSc3ncnc4nc[nH]c34)c3ccccc3nc2c1`, the GI50 with COLO 205 colon is 0.428 µM; in the experiment with NCI-H23 lung, 1.7 µM; in the experiment on M14 melanoma it was 1.7 µM; with RXF 393 renal, 0.967 µM; in the experiment on RPMI-8226 leukemia it was 2.42 µM; in the experiment on SK-MEL-5 melanoma it was 1.16 µM. The GI50 is 1.15 µM with HCT-15 colon, 1.63 µM with OVCAR-4 ovarian, 0.609 µM in the experiment on ACHN renal and 1.36 µM with SNB-19 CNS. Moreover, the TGI in the experiment on COLO 205 colon amounted to 1.76 µM; in the experiment with NCI-H23 lung, 5.76 µM; in the experiment with M14 melanoma, 4.12 µM; in the experiment with RXF 393 renal it was 2.87 µM; in the experiment on RPMI-8226 leukemia, 6.82 µM; in the experiment with SK-MEL-5 melanoma, 2.39 µM. For the same molecule, the TGI is 10.2 µM in the experiment on HCT-15 colon, 10.5 µM in the experiment with OVCAR-4 ovarian, 7.03 µM with ACHN renal and 13 µM in the experiment with SNB-19 CNS.

With `CN1C(=O)N(C)C2C1NC(=S)N2/N=C/C=C/c1ccccc1[N+](=O)[O-]` (stereo not given), the GI50 was 1.23 µM in the experiment on COLO 205 colon; 2.75 µM with NCI-H23 lung; 0.92 µM in the experiment with M14 melanoma; 2.42 µM in the experiment on RXF 393 renal; 2.74 µM in the experiment with RPMI-8226 leukemia; 0.753 µM in the experiment on SK-MEL-5 melanoma. In addition, the GI50 in the experiment with HCT-15 colon was 0.889 µM; in the experiment on OVCAR-4 ovarian, greater than 100 µM; in the experiment on ACHN renal, 0.988 µM; with SNB-19 CNS, 0.952 µM. Besides, the TGI in the experiment on COLO 205 colon was 6.77 µM; in the experiment on NCI-H23 lung, greater than 100 µM; in the experiment with M14 melanoma, greater than 100 µM; in the experiment with RXF 393 renal it was greater than 100 µM; in the experiment on RPMI-8226 leukemia it was greater than 100 µM; in the experiment on SK-MEL-5 melanoma it was greater than 100 µM. Also, the TGI with HCT-15 colon, with OVCAR-4 ovarian, with ACHN renal and in the experiment on SNB-19 CNS was greater than 100 µM throughout.
